Experiments:
Settings in all cases: Compound concentration 10 µM
[1] = molecular target: Sodium-dependent dopamine transporter (Homo sapiens) (UniProt Q01959)
Description: PDSP Primary Binding target: SLC6A3 - Compounds are tested at 10 uM concentration, plate are incubated at room temperature in the dark for 90 minutes. Reaction are stopped by vacuum filtration onto 0.3% polyethyleneimine soaked filter mats using Filtermate harvester. Scintilation cocktail is then melted onto microwave-dried filters on a hot plate and the radio activity is counted in Microbia counter.

[2] = molecular target: Translocator protein (Homo sapiens) (UniProt P30536)
Description: PDSP Primary Binding target: TSPO - Compounds are tested at 10 uM concentration, plate are incubated at room temperature in the dark for 90 minutes. Reaction are stopped by vacuum filtration onto 0.3% polyethyleneimine soaked filter mats using Filtermate harvester. Scintilation cocktail is then melted onto microwave-dried filters on a hot plate and the radio activity is counted in Microbia counter.

[3] = molecular target: Sodium-dependent noradrenaline transporter (Homo sapiens) (UniProt P23975)
Description: PDSP Primary Binding target: SLC6A2 - Compounds are tested at 10 uM concentration, plate are incubated at room temperature in the dark for 90 minutes. Reaction are stopped by vacuum filtration onto 0.3% polyethyleneimine soaked filter mats using Filtermate harvester. Scintilation cocktail is then melted onto microwave-dried filters on a hot plate and the radio activity is counted in Microbia counter.

[4] = molecular target: T1, Muscarinic acetylcholine receptor M5 (Homo sapiens) (UniProt P08912)
T1 sequence (whole entry): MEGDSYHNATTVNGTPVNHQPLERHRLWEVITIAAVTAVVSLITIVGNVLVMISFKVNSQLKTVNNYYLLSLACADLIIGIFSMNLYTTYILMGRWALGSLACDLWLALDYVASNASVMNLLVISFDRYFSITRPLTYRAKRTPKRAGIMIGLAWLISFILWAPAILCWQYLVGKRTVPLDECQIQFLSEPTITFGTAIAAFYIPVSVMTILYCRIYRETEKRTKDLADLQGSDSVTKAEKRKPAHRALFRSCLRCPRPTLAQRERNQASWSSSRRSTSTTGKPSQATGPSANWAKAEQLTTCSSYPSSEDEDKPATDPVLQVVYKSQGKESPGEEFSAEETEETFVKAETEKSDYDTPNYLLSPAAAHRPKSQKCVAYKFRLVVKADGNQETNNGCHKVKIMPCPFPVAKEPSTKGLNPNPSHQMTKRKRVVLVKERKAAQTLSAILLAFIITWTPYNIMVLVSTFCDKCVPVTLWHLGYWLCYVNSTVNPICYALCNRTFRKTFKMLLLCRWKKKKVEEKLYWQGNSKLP
Description: PDSP Primary Binding target: CHRM5 - Compounds are tested at 10 uM concentration, plate are incubated at room temperature in the dark for 90 minutes. Reaction are stopped by vacuum filtration onto 0.3% polyethyleneimine soaked filter mats using Filtermate harvester. Scintilation cocktail is then melted onto microwave-dried filters on a hot plate and the radio activity is counted in Microbia counter.

[5] = molecular target: Beta-2 adrenergic receptor (Homo sapiens) (UniProt P07550)
Description: PDSP Primary Binding target: ADRB2 - Compounds are tested at 10 uM concentration, plate are incubated at room temperature in the dark for 90 minutes. Reaction are stopped by vacuum filtration onto 0.3% polyethyleneimine soaked filter mats using Filtermate harvester. Scintilation cocktail is then melted onto microwave-dried filters on a hot plate and the radio activity is counted in Microbia counter.

[6] = molecular target: Sigma non-opioid intracellular receptor 1 (Homo sapiens) (UniProt Q99720)
Description: PDSP Primary Binding target: SIGMAR1 - Compounds are tested at 10 uM concentration, plate are incubated at room temperature in the dark for 90 minutes. Reaction are stopped by vacuum filtration onto 0.3% polyethyleneimine soaked filter mats using Filtermate harvester. Scintilation cocktail is then melted onto microwave-dried filters on a hot plate and the radio activity is counted in Microbia counter.

[7] = molecular target: Mu-type opioid receptor (Homo sapiens) (UniProt P35372)
Description: PDSP Primary Binding target: OPRM1 - Compounds are tested at 10 uM concentration, plate are incubated at room temperature in the dark for 90 minutes. Reaction are stopped by vacuum filtration onto 0.3% polyethyleneimine soaked filter mats using Filtermate harvester. Scintilation cocktail is then melted onto microwave-dried filters on a hot plate and the radio activity is counted in Microbia counter.

[8] = molecular target: Kappa-type opioid receptor (Homo sapiens) (UniProt P41145)
Description: PDSP Primary Binding target: OPRK1 - Compounds are tested at 10 uM concentration, plate are incubated at room temperature in the dark for 90 minutes. Reaction are stopped by vacuum filtration onto 0.3% polyethyleneimine soaked filter mats using Filtermate harvester. Scintilation cocktail is then melted onto microwave-dried filters on a hot plate and the radio activity is counted in Microbia counter.

[9] = molecular target: Delta-type opioid receptor (Homo sapiens) (UniProt P41143)
Description: PDSP Primary Binding target: OPRD1 - Compounds are tested at 10 uM concentration, plate are incubated at room temperature in the dark for 90 minutes. Reaction are stopped by vacuum filtration onto 0.3% polyethyleneimine soaked filter mats using Filtermate harvester. Scintilation cocktail is then melted onto microwave-dried filters on a hot plate and the radio activity is counted in Microbia counter.

[10] = molecular target: T2, Alpha-2B adrenergic receptor (Homo sapiens) (UniProt P18089)
T2 sequence (whole entry): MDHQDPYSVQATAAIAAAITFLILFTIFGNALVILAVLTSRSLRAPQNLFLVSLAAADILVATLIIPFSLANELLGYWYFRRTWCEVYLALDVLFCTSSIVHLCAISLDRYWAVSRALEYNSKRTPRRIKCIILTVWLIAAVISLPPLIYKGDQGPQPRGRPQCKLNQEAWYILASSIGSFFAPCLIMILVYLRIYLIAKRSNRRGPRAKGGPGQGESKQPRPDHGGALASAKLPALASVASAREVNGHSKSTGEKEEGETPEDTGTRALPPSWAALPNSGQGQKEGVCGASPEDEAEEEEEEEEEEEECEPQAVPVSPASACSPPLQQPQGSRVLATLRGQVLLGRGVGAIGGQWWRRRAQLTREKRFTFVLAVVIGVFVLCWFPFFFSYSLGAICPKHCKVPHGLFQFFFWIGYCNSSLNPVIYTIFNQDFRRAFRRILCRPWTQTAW
Description: PDSP Primary Binding target: ADRA2B - Compounds are tested at 10 uM concentration, plate are incubated at room temperature in the dark for 90 minutes. Reaction are stopped by vacuum filtration onto 0.3% polyethyleneimine soaked filter mats using Filtermate harvester. Scintilation cocktail is then melted onto microwave-dried filters on a hot plate and the radio activity is counted in Microbia counter.

[11] = molecular target: T3, 5-hydroxytryptamine receptor 3A (Homo sapiens) (UniProt P46098)
T3 sequence (whole entry): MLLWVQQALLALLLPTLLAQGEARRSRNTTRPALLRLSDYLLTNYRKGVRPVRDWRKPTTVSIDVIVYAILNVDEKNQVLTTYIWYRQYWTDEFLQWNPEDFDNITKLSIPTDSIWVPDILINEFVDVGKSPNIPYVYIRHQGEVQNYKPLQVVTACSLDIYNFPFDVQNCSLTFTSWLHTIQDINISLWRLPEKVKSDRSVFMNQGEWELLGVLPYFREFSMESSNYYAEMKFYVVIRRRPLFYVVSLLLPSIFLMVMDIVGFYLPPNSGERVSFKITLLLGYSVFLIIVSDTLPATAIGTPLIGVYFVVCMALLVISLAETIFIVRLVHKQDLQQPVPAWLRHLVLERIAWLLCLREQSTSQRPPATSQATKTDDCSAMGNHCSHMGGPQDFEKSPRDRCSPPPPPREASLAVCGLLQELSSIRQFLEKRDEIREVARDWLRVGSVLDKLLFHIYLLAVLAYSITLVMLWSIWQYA
Description: PDSP Primary Binding target: HTR3A - Compounds are tested at 10 uM concentration, plate are incubated at room temperature in the dark for 90 minutes. Reaction are stopped by vacuum filtration onto 0.3% polyethyleneimine soaked filter mats using Filtermate harvester. Scintilation cocktail is then melted onto microwave-dried filters on a hot plate and the radio activity is counted in Microbia counter.

[12] = molecular target: 5-hydroxytryptamine receptor 6 (Homo sapiens) (UniProt P50406)
Description: PDSP Primary Binding target: HTR6 - Compounds are tested at 10 uM concentration, plate are incubated at room temperature in the dark for 90 minutes. Reaction are stopped by vacuum filtration onto 0.3% polyethyleneimine soaked filter mats using Filtermate harvester. Scintilation cocktail is then melted onto microwave-dried filters on a hot plate and the radio activity is counted in Microbia counter.

[13] = molecular target: T4, Alpha-1B adrenergic receptor (Homo sapiens) (UniProt P35368)
T4 sequence (whole entry): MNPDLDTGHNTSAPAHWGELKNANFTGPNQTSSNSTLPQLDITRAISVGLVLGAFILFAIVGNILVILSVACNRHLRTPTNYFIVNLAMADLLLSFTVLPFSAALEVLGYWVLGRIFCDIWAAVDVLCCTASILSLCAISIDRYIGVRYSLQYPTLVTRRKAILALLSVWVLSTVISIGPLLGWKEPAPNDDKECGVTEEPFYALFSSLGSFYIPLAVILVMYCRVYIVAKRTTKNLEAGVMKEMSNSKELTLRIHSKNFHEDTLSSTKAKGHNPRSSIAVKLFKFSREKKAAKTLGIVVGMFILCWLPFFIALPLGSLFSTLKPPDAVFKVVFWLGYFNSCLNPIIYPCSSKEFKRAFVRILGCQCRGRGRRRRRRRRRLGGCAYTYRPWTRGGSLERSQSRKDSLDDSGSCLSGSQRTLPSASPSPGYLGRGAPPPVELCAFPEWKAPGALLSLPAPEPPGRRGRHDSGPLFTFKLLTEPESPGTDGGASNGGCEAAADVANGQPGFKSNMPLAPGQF
Description: PDSP Primary Binding target: ADRA1B - Compounds are tested at 10 uM concentration, plate are incubated at room temperature in the dark for 90 minutes. Reaction are stopped by vacuum filtration onto 0.3% polyethyleneimine soaked filter mats using Filtermate harvester. Scintilation cocktail is then melted onto microwave-dried filters on a hot plate and the radio activity is counted in Microbia counter.

Beta-2 adrenergic receptor (Homo sapiens), sequence (P07550 whole entry, looked up): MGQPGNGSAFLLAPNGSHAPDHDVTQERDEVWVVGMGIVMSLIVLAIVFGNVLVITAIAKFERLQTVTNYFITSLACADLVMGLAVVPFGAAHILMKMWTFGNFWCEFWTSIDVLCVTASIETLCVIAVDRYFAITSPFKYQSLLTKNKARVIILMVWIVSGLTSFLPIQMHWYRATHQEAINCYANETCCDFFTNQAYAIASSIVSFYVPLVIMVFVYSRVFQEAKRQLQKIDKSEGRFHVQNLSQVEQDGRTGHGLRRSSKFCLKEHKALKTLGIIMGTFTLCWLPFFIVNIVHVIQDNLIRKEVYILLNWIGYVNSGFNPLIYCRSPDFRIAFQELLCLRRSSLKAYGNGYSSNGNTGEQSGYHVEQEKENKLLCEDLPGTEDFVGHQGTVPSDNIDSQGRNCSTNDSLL
Sodium-dependent dopamine transporter (Homo sapiens), sequence (Q01959 whole entry): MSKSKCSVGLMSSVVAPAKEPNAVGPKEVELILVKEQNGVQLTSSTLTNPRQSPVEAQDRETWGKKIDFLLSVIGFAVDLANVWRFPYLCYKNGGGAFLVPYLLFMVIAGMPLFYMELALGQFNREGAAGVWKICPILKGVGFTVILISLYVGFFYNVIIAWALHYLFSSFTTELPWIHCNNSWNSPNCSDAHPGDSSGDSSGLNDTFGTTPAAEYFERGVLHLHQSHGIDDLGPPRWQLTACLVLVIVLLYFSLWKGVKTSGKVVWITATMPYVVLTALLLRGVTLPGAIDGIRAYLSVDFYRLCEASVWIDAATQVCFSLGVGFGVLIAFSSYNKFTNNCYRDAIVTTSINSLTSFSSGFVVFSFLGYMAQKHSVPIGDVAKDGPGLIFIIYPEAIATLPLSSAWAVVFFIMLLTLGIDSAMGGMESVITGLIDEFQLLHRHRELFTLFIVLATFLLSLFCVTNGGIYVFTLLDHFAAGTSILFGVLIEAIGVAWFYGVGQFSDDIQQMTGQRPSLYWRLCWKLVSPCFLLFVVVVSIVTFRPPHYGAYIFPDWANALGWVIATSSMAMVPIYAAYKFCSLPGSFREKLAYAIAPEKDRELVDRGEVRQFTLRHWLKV
Kappa-type opioid receptor (Homo sapiens), sequence (P41145 whole entry): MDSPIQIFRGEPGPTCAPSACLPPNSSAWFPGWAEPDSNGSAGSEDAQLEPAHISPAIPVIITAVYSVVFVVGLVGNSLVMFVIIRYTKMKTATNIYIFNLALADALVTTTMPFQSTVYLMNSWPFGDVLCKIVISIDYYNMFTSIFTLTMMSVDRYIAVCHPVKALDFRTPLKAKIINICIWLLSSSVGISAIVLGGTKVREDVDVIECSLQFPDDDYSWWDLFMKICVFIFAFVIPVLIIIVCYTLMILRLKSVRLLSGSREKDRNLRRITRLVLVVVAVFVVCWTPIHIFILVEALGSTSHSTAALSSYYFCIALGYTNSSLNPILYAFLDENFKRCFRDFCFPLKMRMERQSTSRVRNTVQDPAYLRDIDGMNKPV
Translocator protein (Homo sapiens), sequence (P30536 whole entry): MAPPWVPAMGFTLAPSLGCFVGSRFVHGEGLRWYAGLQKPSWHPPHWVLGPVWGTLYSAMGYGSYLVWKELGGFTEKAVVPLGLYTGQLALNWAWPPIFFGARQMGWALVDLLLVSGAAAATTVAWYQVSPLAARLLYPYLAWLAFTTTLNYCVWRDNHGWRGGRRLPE
Mu-type opioid receptor (Homo sapiens), sequence (P35372 whole entry): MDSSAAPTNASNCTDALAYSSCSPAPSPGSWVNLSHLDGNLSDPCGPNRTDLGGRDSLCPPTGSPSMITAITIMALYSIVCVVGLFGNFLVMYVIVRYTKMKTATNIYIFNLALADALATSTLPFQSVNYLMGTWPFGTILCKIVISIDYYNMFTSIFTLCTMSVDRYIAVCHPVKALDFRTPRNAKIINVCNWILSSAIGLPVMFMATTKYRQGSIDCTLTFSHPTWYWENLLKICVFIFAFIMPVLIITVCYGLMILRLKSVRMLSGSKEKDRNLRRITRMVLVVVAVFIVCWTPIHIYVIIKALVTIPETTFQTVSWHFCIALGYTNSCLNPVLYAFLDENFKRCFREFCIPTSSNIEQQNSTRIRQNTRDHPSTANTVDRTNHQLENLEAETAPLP
5-hydroxytryptamine receptor 6 (Homo sapiens), sequence (P50406 whole entry): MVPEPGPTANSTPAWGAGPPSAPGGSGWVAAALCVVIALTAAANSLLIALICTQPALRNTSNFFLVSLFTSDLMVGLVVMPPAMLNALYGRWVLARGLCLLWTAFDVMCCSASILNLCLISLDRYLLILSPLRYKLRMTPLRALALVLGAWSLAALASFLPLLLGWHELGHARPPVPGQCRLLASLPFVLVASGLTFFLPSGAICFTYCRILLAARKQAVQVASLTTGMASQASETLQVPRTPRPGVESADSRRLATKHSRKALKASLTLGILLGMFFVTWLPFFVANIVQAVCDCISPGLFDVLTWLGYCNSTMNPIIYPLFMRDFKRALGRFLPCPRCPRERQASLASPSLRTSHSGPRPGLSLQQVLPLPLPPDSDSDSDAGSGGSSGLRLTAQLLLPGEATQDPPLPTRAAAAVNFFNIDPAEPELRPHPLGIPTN
Sodium-dependent noradrenaline transporter (Homo sapiens), sequence (P23975 whole entry): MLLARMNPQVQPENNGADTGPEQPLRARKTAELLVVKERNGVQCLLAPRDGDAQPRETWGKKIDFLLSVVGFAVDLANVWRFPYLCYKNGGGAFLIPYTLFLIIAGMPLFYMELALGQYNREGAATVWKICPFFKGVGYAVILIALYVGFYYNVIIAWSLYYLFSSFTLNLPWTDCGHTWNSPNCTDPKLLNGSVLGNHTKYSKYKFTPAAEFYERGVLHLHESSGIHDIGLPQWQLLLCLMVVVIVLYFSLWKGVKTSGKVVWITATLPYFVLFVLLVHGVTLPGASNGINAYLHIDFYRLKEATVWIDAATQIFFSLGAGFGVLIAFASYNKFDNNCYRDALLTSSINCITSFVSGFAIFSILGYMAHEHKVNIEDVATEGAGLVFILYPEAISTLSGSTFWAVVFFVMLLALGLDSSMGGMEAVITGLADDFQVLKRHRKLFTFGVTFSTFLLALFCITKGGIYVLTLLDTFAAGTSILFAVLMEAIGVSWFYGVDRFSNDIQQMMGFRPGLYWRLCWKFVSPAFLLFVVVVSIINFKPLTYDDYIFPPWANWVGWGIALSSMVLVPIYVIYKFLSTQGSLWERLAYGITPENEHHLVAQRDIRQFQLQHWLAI
Delta-type opioid receptor (Homo sapiens), sequence (P41143 whole entry): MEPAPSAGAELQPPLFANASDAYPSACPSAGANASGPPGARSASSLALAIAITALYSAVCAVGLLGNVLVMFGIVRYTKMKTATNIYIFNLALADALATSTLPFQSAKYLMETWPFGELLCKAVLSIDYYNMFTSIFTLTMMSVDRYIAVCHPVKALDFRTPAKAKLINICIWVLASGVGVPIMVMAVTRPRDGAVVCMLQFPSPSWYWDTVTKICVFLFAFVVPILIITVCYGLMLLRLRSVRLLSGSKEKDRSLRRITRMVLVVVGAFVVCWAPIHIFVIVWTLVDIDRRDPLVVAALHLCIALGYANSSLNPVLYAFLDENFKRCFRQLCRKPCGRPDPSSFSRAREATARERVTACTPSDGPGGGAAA
Sigma non-opioid intracellular receptor 1 (Homo sapiens), sequence (Q99720 whole entry): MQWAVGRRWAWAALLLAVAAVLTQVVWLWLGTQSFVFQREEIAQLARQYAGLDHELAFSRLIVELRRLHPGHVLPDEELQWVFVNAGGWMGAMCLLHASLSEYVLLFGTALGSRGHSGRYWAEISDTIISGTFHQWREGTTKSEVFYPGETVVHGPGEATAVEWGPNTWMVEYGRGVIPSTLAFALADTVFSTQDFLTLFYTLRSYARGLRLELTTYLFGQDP

| Structure (SMILES) | inhibition [1] [%] | inhibition [2] [%] | inhibition [3] [%] | inhibition [4] [%] | inhibition [5] [%] | inhibition [6] [%] | inhibition [7] [%] | inhibition [8] [%] | inhibition [9] [%] | inhibition [10] [%] | inhibition [11] [%] | inhibition [12] [%] | inhibition [13] [%] |
| --- | --- | --- | --- | --- | --- | --- | --- | --- | --- | --- | --- | --- | --- |
| CN1CC(=O)N=C1NC(=O)Nc1cccc(Cl)c1 | 0.92 | -8.11 | 9.52 | 6.05 | -8.89 | 3.26 | 5.37 | 2.28 | -3.44 | -6.21 | -5.43 | -0.6 | -6.38 |
| Oc1ccc2c3c1O[C@H]1c4[nH]c5c(c4C[C@@]4(O)[C@@H](C2)N(CC2CC2)CC[C@]314)C[C@@]1(O)[C@H]2Cc3ccc(O)c4c3[C@@]1(CCN2CC1CC1)[C@H]5O4 | -4.44 | 21.5 | 12.7 | -0.25 | -6.53 | 9.49 | 80.6 | 105 | 93.5 | 8.68 | 6.54 | 11.4 | -1.68 |
| Clc1cccc(COc2cncc(N3CCNCC3)n2)c1 | 33.5 | 36.1 | 20.2 | 85.1 | 32.6 | 96 | 0.78 | 28.3 | -4.82 | 36.1 | 97.8 | 97.9 | 26.2 |
| COc1cccc([C@@H](C)NCCCc2ccccc2Cl)c1 | 31.1 | 9.42 | 64.6 | 9.55 | -2.01 | 97.4 | 57.2 | 65.3 | 11.8 | 72.4 | -2.74 | 84.3 | 15.5 |
| N#Cc1ccc2[nH]cc(CCCCN3CCN(c4ccc5oc(C(N)=O)cc5c4)CC3)c2c1 | 99.5 | -4.35 | 98.1 | 30.6 | 56.2 | 99.1 | 62.7 | 30.6 | 35.4 | 47.1 | 46.7 | 30.3 | 53.7 |
| COC(=O)C1=C(C)NC(C)=C(C(=O)OCCCN2CCC(c3ccccc3)(c3ccccc3)CC2)[C@H]1c1cccc([N+](=O)[O-])c1 | 89.7 | 79.8 | 86.5 | 89.6 | 22.1 | 53.5 | 92 | 95.6 | 94.1 | 90 | 43.2 | 71.6 | 98.6 |
| CCc1ccc(OCc2ccccc2C(=O)Nc2ccc3nc(C)cc(N)c3c2)cc1 | 68.4 | 54.7 | 87.4 | 24 | 8.05 | 58.1 | 81.7 | 72 | -2.98 | 55.2 | 24.7 | 46.5 | 60.5 |
| CC(C)(N)C(=O)N[C@H](COCc1ccccc1)C(=O)N1CCC2(CC1)CN(S(C)(=O)=O)c1ccccc12 | 39.5 | 9.25 | -2.84 | 5.22 | -3.52 | 16.4 | 12.8 | 17.4 | 3.11 | -5.98 | 17.7 | 5.9 | 11.4 |
| CCCCN1CCC(COC(=O)c2cc(Cl)c(N)c3c2OCCO3)CC1 | 19.5 | 0.42 | 42.9 | -7.37 | 14.1 | 105 | 9.58 | 7.01 | 0.6 | 33.3 | 72.4 | 20.1 | -1.39 |

— ChEMBL document CHEMBL5442219
